US20160045459A1, “Pharmaceutical Combination” (Gruenenthal GmbH, priority 2006, published 2016)
Like-named read-outs stand apart in the source and are kept apart here.

Tested on: rat
Experiment: Randall-Selitto test in rats (Carrageenin-induced oedema, model for inflammatory pain), with isobolographic analysis of fixed ratio combinations
Assay type: in vivo
Conditions: for ED50: Rattus norvegicus, confidence interval in brackets; for timepoint of peak effect: substance applied alone, A i.v., NSAIDs i.p.
Experimental: The weight ratios of the components (a) and (b) that will lead to a supra-additive effect (synergistic effect) of the inventive pharmaceutical composition may be determined via the test of Randall and Selitto as described in Arch. Int. Pharmacodyn., 1957, 111: 409 to 419, which is a model for inflammatory pain. The respective part of the literature is hereby incorporated by reference and forms part of the present disclosure.
By means of injection of 0.1 ml of Carrageenin-suspension ventrally into a hind paw of a rat an oedema is induced, on which pain is generated 4 hours later by continuously increasing pressure with a stamp (2 mm tip diameter). The antinociceptive and antihyperalgesic activity of the tested substance is determined at different points in time after administration of the substance. The measured value to be determined and at the same time also the end point of the pain test is the pressure at which the vocalisation reaction of the rat occurs. The percentage maximum possible effect (% MPE) is calculated. The maximum pressure of the stamp is 250 g. The group size is n=10.
The interactions studies presented herein were performed using equieffective doses of the two components, calculated from the ratio of the respective ED50 values of the components if administered alone.
The application route was intravenous (i.v.) for (1R,2R)-3-(3-Dimethylamino-1-ethyl-2-methyl-propyl)-phenol (A) and intraperitoneal (i.p.) for the NSAIDs Diclofenac-sodium and Ibuprofen. […] According to their respective timepoint of peak effect, (1R,2R)-3-(3-Dimethylamino-1-ethyl-2-methyl-propyl)-phenol was applied 15 min and Diclofenac-Sodium and Ibuprofen 30 min before timepoint of measurement of the interaction-experiments (i. e. Diclofenac-Sodium or Ibuprofen were applied 15 min before (1R,2R)-3-(3-Dimethylamino-1-ethyl-2-methyl-propyl)-phenol, respectively). Thus, the time point of ED50 calculation of the combination corresponds to the timepoint of the peak effect of the respective compound.
The application route was intravenous (i.v.) for (1R,2R)-3-(3-Dimethylamino-1-ethyl-2-methyl-propyl)-phenol (A) and intraperitoneal (i.p.) for the NSAIDs (+)-Naproxen, Ketoprofen and Metamizol-Sodium. […] According to their respective timepoint of peak effect, (1R,2R)-3-(3-Dimethylamino-1-ethyl-2-methyl-propyl)-phenol was applied 15 min and (+)-Naproxen, Ketoprofen and Metamizol-Sodium 45 min before timepoint of measurement of the interaction-experiments (i. e. (+)-Naproxen, Ketoprofen and Metamizol-Sodium were applied 30 min before (1R,2R)-3-(3-Dimethylamino-1-ethyl-2-methyl-propyl)-phenol, respectively). Thus, the time point of ED50 calculation of the combination corresponds to the timepoint of the peak effect of the respective compound.

[1] = ip, 0.5 h, study A, i.p., 30 min p. appl. (peak effect), read-out: ED50 of the NSAID applied alone
[2] = ip, 0.75 h, study B, i.p., 45 min p. appl. (peak effect), read-out: ED50 of the NSAID applied alone

Row | Structure (SMILES) | ED50 (iv, 0.25 h, read-out: ED50 of A applied alone, study A, i.v., 15 min p. appl. (peak effect)) | ED50 (iv, 0.25 h, read-out: ED50 of A applied alone, study B, i.v., 15 min p. appl. (peak effect)) | ED50 [1] | analgesic effect of the NSAID applied alone (i.p.) | timepoint of peak effect | ED50 [2]
1 | CC[C@@H](c1cccc(O)c1)[C@@H](C)CN(C)C [A, (1R,2R)-3-(3-Dimethylamino-1-ethyl-2-methyl-propyl)-phenol] | 1.88 mg/kg | 1.88 mg/kg |  |  |  | 
2 | O=C(O)Cc1ccccc1Nc1c(Cl)cccc1Cl [Diclofenac-Sodium] |  |  | 145 mg/kg | dose-dependent analgesic effects | 30 min p. appl. | 
3 | CC(C)Cc1ccc(C(C)C(=O)O)cc1 (centres unmarked) [Ibuprofen, 2-(4-Isobutylphenyl)propanoic acid] |  |  | 139 mg/kg | dose-dependent analgesic effects | 30 min p. appl. | 
4 | CC(C(=O)O)c1cccc(C(=O)c2ccccc2)c1 (centres unmarked) [Ketoprofen, 2-(3-Benzoylphenyl)propanoic acid] |  |  |  | dose-dependent analgesic effects | 45 min p. appl. | 224 mg/kg
5 | CC1C(N(C)CS(=O)(=O)[O-])C(=O)N(c2ccccc2)N1C.[Na+] (centres unmarked) [Metamizol-Sodium, Sodium ((1,5-dimethyl-3-oxo-2-phenylpyrazolidin-4-yl)(methyl)amino)methanesulfonate] |  |  |  | dose-dependent analgesic effects | 45 min p. appl. | 88.1 mg/kg
